According to patent US20230085307A1, “PYRIDAZINONE COMPOUND AND HERBICIDE” (NISSAN CHEMICAL CORPORATION, priority 2019, published 2023):

How the values were obtained:
[1] = tested on: late watergrass; test: Test Example 1: herbicidal activity, application before weed generation under submerged conditions (Table 16, symbol A); assay type: in vivo, late watergrass (Echinochloa oryzicola); conditions: amount of applied herbicide 320 g/ha
Procedure, shortened: (§1)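 Emulsion formulation, water-diluted to set dose, was put onto the flooded surface (4 cm depth, alluvial soil) the same day weeds were sown and 2.5-leaf rice transplanted. After 3 weeks at 25-30 °C under glass, each species was rated 0 (≤5% kill) to 5 (≥90% kill).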

[2] = tested on: Japanese bulrush; test: Test Example 1: herbicidal activity, application before weed generation under submerged conditions (Table 16, symbol B); assay type: in vivo, Japanese bulrush (Schoenoplectus juncoides); conditions: amount of applied herbicide 320 g/ha
Procedure, shortened: as §1

[3] = tested on: oval-leafed pondweed; test: Test Example 1: herbicidal activity, application before weed generation under submerged conditions (Table 16, symbol C); assay type: in vivo, oval-leafed pondweed (Monochoria vaginalis); conditions: amount of applied herbicide 320 g/ha
Procedure, shortened: as §1

[4] = tested on: barnyard grass; test: Test Example 3: herbicidal effect by foliage application, Wagner pot (Table 18, symbol H); assay type: in vivo, barnyard grass (Echinochloa crus-galli); conditions: 320 g/ha
Procedure, shortened: (§2)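 Plants were sown in alluvial soil held under 0.1–0.5 cm standing water and grown 14 days in a greenhouse at 25–30 °C. An emulsifiable formulation, water-diluted to the set dose, was then sprayed onto the foliage, and effects were scored three weeks later using previously defined criteria.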

[5] = tested on: Chinese sprangletop; test: Test Example 3: herbicidal effect by foliage application, Wagner pot (Table 18, symbol D); assay type: in vivo, chinese sprangletop (Leptochloa chinensis); conditions: 320 g/ha
Procedure, shortened: as §2

[6] = tested on: rice flat sedge; test: Test Example 3: herbicidal effect by foliage application, Wagner pot (Table 18, symbol E); assay type: in vivo, rice flat sedge (Cyperus iria); conditions: 320 g/ha
Procedure, shortened: as §2

[7] = tested on: southern crabgrass; test: Test Example 5: herbicidal effect by foliage application, plastic box (Table 20, symbol F); assay type: in vivo, southern crabgrass (Digitaria ciliaris); conditions: amount of applied herbicide 320 g/ha; foliage application after 14-day growth; evaluated three weeks after application
Procedure, shortened: (§3)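 Sow seeds spot-wise in sterilized diluvial soil; cover with ~1.5 cm soil. Grow 14 days in greenhouse, 25° C. to 30° C. Spray foliage with emulsion diluted to predetermined amount. Rate effect after 3 weeks.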

[8] = tested on: green foxtail; test: Test Example 5: herbicidal effect by foliage application, plastic box (Table 20, symbol G); assay type: in vivo, green foxtail (Setaria viridis); conditions: amount of applied herbicide 320 g/ha; foliage application after 14-day growth; evaluated three weeks after application
Procedure, shortened: as §3

[9] = tested on: barnyard grass; test: Test Example 5: herbicidal effect by foliage application, plastic box (Table 20, symbol H); assay type: in vivo, barnyard grass (Echinochloa crus-galli); conditions: amount of applied herbicide 320 g/ha; foliage application after 14-day growth; evaluated three weeks after application
Procedure, shortened: as §3

[10] = tested on: wild oat; test: Test Example 5: herbicidal effect by foliage application, plastic box (Table 20, symbol I); assay type: in vivo, wild oat (Avena fatua); conditions: amount of applied herbicide 320 g/ha; foliage application after 14-day growth; evaluated three weeks after application
Procedure, shortened: as §3

[11] = tested on: blackgrass; test: Test Example 5: herbicidal effect by foliage application, plastic box (Table 20, symbol J); assay type: in vivo, blackgrass (Alopecurus myosuroides); conditions: amount of applied herbicide 320 g/ha; foliage application after 14-day growth; evaluated three weeks after application
Procedure, shortened: as §3

[12] = tested on: Italian ryegrass; test: Test Example 5: herbicidal effect by foliage application, plastic box (Table 20, symbol K); assay type: in vivo, Italian ryegrass (Lolium multiflorum); conditions: amount of applied herbicide 320 g/ha; foliage application after 14-day growth; evaluated three weeks after application
Procedure, shortened: as §3

[13] = tested on: windgrass; test: Test Example 5: herbicidal effect by foliage application, plastic box (Table 20, symbol L); assay type: in vivo, windgrass (Apera spica-venti); conditions: amount of applied herbicide 320 g/ha; foliage application after 14-day growth; evaluated three weeks after application
Procedure, shortened: as §3

[14] = tested on: velvetleaf; test: Test Example 5: herbicidal effect by foliage application, plastic box (Table 20, symbol M); assay type: in vivo, velvetleaf (Abutilon theophrasti); conditions: amount of applied herbicide 320 g/ha; foliage application after 14-day growth; evaluated three weeks after application
Procedure, shortened: as §3

[15] = tested on: redroot pigweed; test: Test Example 5: herbicidal effect by foliage application, plastic box (Table 20, symbol N); assay type: in vivo, redroot pigweed (Amaranthus retroflexus); conditions: amount of applied herbicide 320 g/ha; foliage application after 14-day growth; evaluated three weeks after application
Procedure, shortened: as §3

[16] = tested on: lambsquarters; test: Test Example 5: herbicidal effect by foliage application, plastic box (Table 20, symbol O); assay type: in vivo, lambsquarters (Chenopodium album); conditions: amount of applied herbicide 320 g/ha; foliage application after 14-day growth; evaluated three weeks after application
Procedure, shortened: as §3

[17] = tested on: chickweed; test: Test Example 5: herbicidal effect by foliage application, plastic box (Table 20, symbol P); assay type: in vivo, common chickweed (Stellaria media); conditions: amount of applied herbicide 320 g/ha; foliage application after 14-day growth; evaluated three weeks after application
Procedure, shortened: as §3

[18] = tested on: persian speedwell; test: Test Example 5: herbicidal effect by foliage application, plastic box (Table 20, symbol R); assay type: in vivo, Persian speedwell (Veronica persica); conditions: amount of applied herbicide 320 g/ha; foliage application after 14-day growth; evaluated three weeks after application
Procedure, shortened: as §3

SMILES	Herbicidal effect, A: late watergrass [1]	Herbicidal effect, B: Japanese bulrush [2]	Herbicidal effect, C: oval-leafed pondweed [3]	herbicidal effect on barnyard grass (H) [4]	herbicidal effect on Chinese sprangletop (D) [5]	herbicidal effect on rice flat sedge (E) [6]	Herbicidal effect by foliage application, F: southern crabgrass [7]	Herbicidal effect by foliage application, G: green foxtail [8]	Herbicidal effect by foliage application, H: barnyard grass [9]	Herbicidal effect by foliage application, I: wild oat [10]	Herbicidal effect by foliage application, J: blackgrass [11]	Herbicidal effect by foliage application, K: Italian ryegrass [12]	Herbicidal effect by foliage application, L: windgrass [13]	Herbicidal effect by foliage application, M: velvetleaf [14]	Herbicidal effect by foliage application, N: redroot pigweed [15]	Herbicidal effect by foliage application, O: lambsquarters [16]	Herbicidal effect by foliage application, P: chickweed [17]	Herbicidal effect by foliage application, R: persian speedwell [18]
Cc1nn(C)c(=O)c(-c2c(-c3ccccc3C(F)(F)F)sc3c(Cl)cccc23)c1O [4-070]	3 (Herbicidal rate of 40% or more and less than 70%)	2 (Herbicidal rate of 20% or more and less than 40%)	1 (Herbicidal rate of 5% or more and less than 20%)	5 (Herbicidal rate of 90% or more (almost completely withered))	4 (Herbicidal rate of 70% or more and less than 90%)	4 (Herbicidal rate of 70% or more and less than 90%)	0 (Herbicidal rate of 5% or less (almost no effect))	0 (Herbicidal rate of 5% or less (almost no effect))	0 (Herbicidal rate of 5% or less (almost no effect))	0 (Herbicidal rate of 5% or less (almost no effect))	0 (Herbicidal rate of 5% or less (almost no effect))	3 (Herbicidal rate of 40% or more and less than 70%)	0 (Herbicidal rate of 5% or less (almost no effect))	0 (Herbicidal rate of 5% or less (almost no effect))	3 (Herbicidal rate of 40% or more and less than 70%)	3 (Herbicidal rate of 40% or more and less than 70%)	5 (Herbicidal rate of 90% or more (almost completely withered))	5 (Herbicidal rate of 90% or more (almost completely withered))
COc1ccccc1-c1sc2cc(Cl)c(Cl)cc2c1-c1c(O)c(C)nn(C)c1=O [5-041]	0 (Herbicidal rate of 5% or less (almost no effect))	5 (Herbicidal rate of 90% or more (almost completely withered))	5 (Herbicidal rate of 90% or more (almost completely withered))	4 (Herbicidal rate of 70% or more and less than 90%)	3 (Herbicidal rate of 40% or more and less than 70%)	3 (Herbicidal rate of 40% or more and less than 70%)	3 (Herbicidal rate of 40% or more and less than 70%)	4 (Herbicidal rate of 70% or more and less than 90%)	3 (Herbicidal rate of 40% or more and less than 70%)	0 (Herbicidal rate of 5% or less (almost no effect))	0 (Herbicidal rate of 5% or less (almost no effect))	0 (Herbicidal rate of 5% or less (almost no effect))	0 (Herbicidal rate of 5% or less (almost no effect))	4 (Herbicidal rate of 70% or more and less than 90%)	5 (Herbicidal rate of 90% or more (almost completely withered))	3 (Herbicidal rate of 40% or more and less than 70%)	5 (Herbicidal rate of 90% or more (almost completely withered))	3 (Herbicidal rate of 40% or more and less than 70%)
CCOc1ccccc1-c1sc2cc(Cl)c(Cl)cc2c1-c1c(O)c(C)nn(C)c1=O [5-045]	0 (Herbicidal rate of 5% or less (almost no effect))	3 (Herbicidal rate of 40% or more and less than 70%)	0 (Herbicidal rate of 5% or less (almost no effect))	4 (Herbicidal rate of 70% or more and less than 90%)	3 (Herbicidal rate of 40% or more and less than 70%)	3 (Herbicidal rate of 40% or more and less than 70%)	2 (Herbicidal rate of 20% or more and less than 40%)	3 (Herbicidal rate of 40% or more and less than 70%)	3 (Herbicidal rate of 40% or more and less than 70%)	0 (Herbicidal rate of 5% or less (almost no effect))	0 (Herbicidal rate of 5% or less (almost no effect))	0 (Herbicidal rate of 5% or less (almost no effect))	0 (Herbicidal rate of 5% or less (almost no effect))	4 (Herbicidal rate of 70% or more and less than 90%)	3 (Herbicidal rate of 40% or more and less than 70%)	1 (Herbicidal rate of 5% or more and less than 20%)	5 (Herbicidal rate of 90% or more (almost completely withered))	5 (Herbicidal rate of 90% or more (almost completely withered))
